Among the data in paper PMC7412250, “Novel Chrysin-De-Allyl PAC-1 Hybrid Analogues as Anticancer Compounds: Design, Synthesis, and Biological Evaluation” (Molecules, 2020) are cellular morphology and IC50 values, retold here.

One assay has as its system MDA-MB-231 cells. The assay is described as follows: Morphological observation of cells. Type of assay: cell-based, human. The following applies: 20 µM. The procedure: Figure 3 Effects of 4g and 4i on cellular morphology, mitochondrial membrane potential, and cell cycle (A) Morphological observations of MDA-MB-231 cells incubated with 0, 5, and 20 µM concentrations of 4g and 4i at different time intervals of 0, 24, 48, and 72 h, respectively; (B) The MDA-MB-231 cells in complete medium were incubated with 4g and 4i at 0, 5, or 10 µM for 24 h. Cells were then incubated with the reagents of the MitoTracker Red and Alexa Fluor 488 annexin V kits for flow cytometry. Representative results of MDA-MB-231 cells from two independent experiments, each performed in triplicate, are shown; (C) Histograms quantitatively summarize the results following incubation with 4g and 4i, respectively; (D) The induction of cell cycle arrest in MDA-MB-231 cells by 4g and 4i is shown. The MDA-MB-231 cells were incubated with different concentrations (0, 5, and 10 µM) of 4g and 4i for 24 h and were subjected to cell cycle analysis by flow cytometry of PI (X axis)/cell counts (Y axis); (E) A histogram quantitatively summarizing the change in % of cells in each phase of the cell cycle due to incubation with 4g and 4i. The data represents means ± SEM of three independent experiments performed in triplicate with **** p < 0.0001 vs. control group. […]

For another assay, the system named is HCT116. The assay is described as follows: MTT cytotoxicity assay, HCT116. In kind it is cell-based. The note with it: Homo sapiens, HCT-116, mean ± SEM of three independent experiments in triplicate, read-out: IC50 Colon Cancer HCT116. As to the method: (§1) A panel of cancer cell lines, including breast (MDA-MB-231, BT20), brain (U251), and colon (HCT116), as well as a normal cell line (human mammary epithelial cells: HMECs), were grown as adherent monolayers in flasks with Dulbecco’s Modified Eagle Medium (DMEM), supplemented with 10% fetal bovine serum (FBS) and 1% penicillin and streptomycin in a humidified incubator with 5% CO2 at 37 °C.
(§2) The (3-(4,5-dimethylthiazol-2-yl)-2,5-diphenyltetrazolium bromide) (MTT) assay was used to determine the cytotoxicity of the 15 chrysin derivatives in the above-mentioned cell lines. Briefly, cells were harvested with 0.05% trypsin, 2.21 mM ethylenediaminetetraacetic acid (EDTA), 1× from Corning (Corning, NY, USA), and suspended at a final density of 5 × 10^3 cells/well. Cells were seeded (180 μL/well) into 96-well plates. Initially, four different concentrations of each compound were added to find the compounds with the greatest antiproliferative efficacy in the MDA-MB-231 cell line (0, 1, 10, and 100 μM). Subsequently, […] different concentrations […] of each compound were added to the remaining cell lines mentioned above. After 68 h of incubation, 20 μL of the MTT solution (4 mg/mL) were added to each well, and the plates were incubated for 4 h. This allowed viable cells to biotransform the yellow-colored MTT into dark-blue formazan crystals. Subsequently, the medium was discarded, and 150 μL of DMSO were added to each well to dissolve the formazan crystals. The absorbance was determined at 590 nm using a DTX 880 multimode detector (Beckman Coulter life sciences, IN, USA). The IC50 ± SD concentrations were calculated from three experiments performed in triplicate/duplicate. The IC50 values were calculated from the cell survival percentages obtained for each compound tested at different concentrations. Similarly, the cytotoxicity of the test compounds was compared to the normal cell line (HMEC).

Assay [1] deals with HMEC (human mammary epithelial cells). The assay is described as follows: MTT cytotoxicity assay, normal cells HMEC. Type of assay: cell-based. The note with it: mean ± SEM of three independent experiments in triplicate. The procedure: as §1, §2

The structures appear in SMILES notation. Some results are limits rather than exact numbers.

In the case of `O=C(COc1cc(O)c2c(=O)cc(-c3ccccc3)oc2c1)N/N=C/c1ccc(O)cc1O` [Compound 4g, (E,Z)-N’-(2,4-Dihydroxybenzylidene)-2-((5-hydroxy-4-oxo-2-phenyl-4H-chromen-7-yl)oxy)acetohydrazide], the cellular morphology result with MDA-MB-231 cells is “decreased the number of adherent MDA-MB-231 cells and induced cellular shrinkage”. Moreover, the IC50 turned out to be 2.68 ± 0.15 µM in the assay with HCT116 and 8 ± 1.33 µM in assay [1].
On to `O=C(COc1cc(O)c2c(=O)cc(-c3ccccc3)oc2c1)N/N=C/c1ccc(O)c(O)c1O` [Compound 4i, (E,Z)-2-((5-Hydroxy-4-oxo-2-phenyl-4H-chromen-7-yl)oxy)-N’-(2,3,4-trihydroxybenzylidene)acetohydrazide], for which the cellular morphology result in the assay on MDA-MB-231 cells is “decreased the number of adherent MDA-MB-231 cells and induced cellular shrinkage”. The IC50 with HCT116 was 20.09 ± 0.13 µM; in assay [1] it was above 100 µM.
